Reference: ChEMBL document CHEMBL3988442, “University of Dundee, Small-Polar-MMV Screening Library” (2021)
“And” between values parts separate entries of the source, which are not always exact repeats. Equal entries are not always repeated.

Key:
[1] = biological target: Polyketide synthase Pks13 (Mycobacterium tuberculosis (strain ATCC 25618 / H37Rv), UniProt I6X8D2); assay: Mycobacterium tuberculosis Polyketide synthase 13 Thioesterase (PKS13); type: functional
[2] = microbe, parasite or virus in culture; conditions: Mycobacterium tuberculosis, 72 h, read-out: pIC50 (converted)
[3] = microbe, parasite or virus in culture; conditions: Mycobacterium tuberculosis, 96 h, read-out: pIC50 (converted)
[4] = biological target: ClpP1P2 (Mycobacterium tuberculosis (strain ATCC 25618 / H37Rv), UniProt P9WPC3+P9WPC5); assay: in vitro assay to detect presence of AMC directly proportional to the activity of ClpP1P2. GHDDI collaboration.; type: functional
[5] = tested on: Plasmodium falciparum; assay: Calibr Malaria Delayed Death Assay SOP; type: functional, organism-based; conditions: for IC50: Plasmodium falciparum

Chain of ClpP1P2 (P9WPC5 whole entry): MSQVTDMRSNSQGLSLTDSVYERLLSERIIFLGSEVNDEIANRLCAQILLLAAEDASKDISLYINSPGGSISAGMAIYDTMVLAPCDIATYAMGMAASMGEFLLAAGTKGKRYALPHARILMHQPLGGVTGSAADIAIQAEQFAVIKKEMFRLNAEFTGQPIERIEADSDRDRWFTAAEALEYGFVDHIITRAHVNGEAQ
Chain of ClpP1P2 (P9WPC3 whole entry): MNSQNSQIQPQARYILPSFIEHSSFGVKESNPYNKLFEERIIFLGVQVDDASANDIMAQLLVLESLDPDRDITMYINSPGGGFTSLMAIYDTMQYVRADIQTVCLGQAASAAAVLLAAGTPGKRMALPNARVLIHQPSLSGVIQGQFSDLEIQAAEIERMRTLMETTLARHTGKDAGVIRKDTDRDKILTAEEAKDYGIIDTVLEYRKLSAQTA
Chain of Polyketide synthase Pks13 (I6X8D2 whole entry): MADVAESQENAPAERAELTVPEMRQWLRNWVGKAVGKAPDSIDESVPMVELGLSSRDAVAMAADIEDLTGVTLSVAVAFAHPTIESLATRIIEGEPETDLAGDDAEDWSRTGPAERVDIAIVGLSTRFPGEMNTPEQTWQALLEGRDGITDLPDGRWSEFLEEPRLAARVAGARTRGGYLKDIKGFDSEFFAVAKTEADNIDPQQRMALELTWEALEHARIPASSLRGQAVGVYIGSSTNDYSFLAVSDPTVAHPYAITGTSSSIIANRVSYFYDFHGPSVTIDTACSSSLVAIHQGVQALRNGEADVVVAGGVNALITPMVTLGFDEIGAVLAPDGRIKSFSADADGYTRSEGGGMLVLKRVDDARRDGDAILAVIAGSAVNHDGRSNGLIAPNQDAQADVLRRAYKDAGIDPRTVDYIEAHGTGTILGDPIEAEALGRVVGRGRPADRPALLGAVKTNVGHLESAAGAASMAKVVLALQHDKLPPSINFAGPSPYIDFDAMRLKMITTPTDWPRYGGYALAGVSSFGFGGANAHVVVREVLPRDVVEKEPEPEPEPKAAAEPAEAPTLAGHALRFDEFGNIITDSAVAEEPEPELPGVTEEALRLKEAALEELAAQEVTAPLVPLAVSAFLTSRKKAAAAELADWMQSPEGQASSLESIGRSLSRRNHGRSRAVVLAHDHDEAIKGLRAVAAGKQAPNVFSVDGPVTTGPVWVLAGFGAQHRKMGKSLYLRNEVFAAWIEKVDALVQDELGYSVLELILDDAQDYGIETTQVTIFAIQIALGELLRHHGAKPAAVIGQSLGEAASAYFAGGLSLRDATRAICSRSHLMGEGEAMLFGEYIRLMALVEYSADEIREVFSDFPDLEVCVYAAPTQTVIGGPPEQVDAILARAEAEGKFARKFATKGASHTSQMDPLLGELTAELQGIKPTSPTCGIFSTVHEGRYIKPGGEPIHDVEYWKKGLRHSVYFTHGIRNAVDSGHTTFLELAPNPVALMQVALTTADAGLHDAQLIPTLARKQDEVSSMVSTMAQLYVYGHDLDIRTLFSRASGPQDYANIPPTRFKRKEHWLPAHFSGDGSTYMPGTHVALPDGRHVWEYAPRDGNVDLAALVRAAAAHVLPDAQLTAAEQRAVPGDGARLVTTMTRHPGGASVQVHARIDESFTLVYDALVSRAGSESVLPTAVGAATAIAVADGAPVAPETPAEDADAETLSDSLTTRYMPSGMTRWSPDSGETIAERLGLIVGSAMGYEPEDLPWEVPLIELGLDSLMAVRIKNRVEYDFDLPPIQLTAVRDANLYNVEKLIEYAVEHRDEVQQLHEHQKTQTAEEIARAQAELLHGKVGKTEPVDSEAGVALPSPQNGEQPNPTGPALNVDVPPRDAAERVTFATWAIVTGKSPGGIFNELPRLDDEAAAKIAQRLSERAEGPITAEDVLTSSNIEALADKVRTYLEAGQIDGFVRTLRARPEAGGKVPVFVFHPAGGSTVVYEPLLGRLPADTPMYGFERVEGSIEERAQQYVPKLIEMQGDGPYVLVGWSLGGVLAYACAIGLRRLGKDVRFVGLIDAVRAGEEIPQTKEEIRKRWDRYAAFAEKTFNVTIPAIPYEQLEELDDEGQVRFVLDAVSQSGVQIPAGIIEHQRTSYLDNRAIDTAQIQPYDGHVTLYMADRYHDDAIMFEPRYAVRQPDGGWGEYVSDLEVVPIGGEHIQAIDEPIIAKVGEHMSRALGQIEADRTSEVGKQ

Row | SMILES | IC50 [1] | IC50 [4] [µM] | other results
1 | COc1ccc(CC(C)Nc2cccc(SC)c2)cc1 (configuration not stated) | 24.5 µM and 22 µM |  | IC50 [2]: > 50.1 µM; IC50 [3]: 45.4 µM
2 | CS(=O)(=O)c1ccc(-c2nc(C(=O)N3CCCC3)n3ccccc23)cc1 | 12.3 µM and 12.9 µM | > 100 | 
3 | CCc1[nH]c2c(CNc3nc(C)cc(NC)n3)cc(C)cc2c1C | > 100 µM |  | pIC50 [5]: 6.194; IC50 [5]: 0.657 µM; IC50 [2]: 23.7 µM; IC50 [3]: 30.7 µM
4 | COC(=O)CNC(=O)c1nc(-c2ccccc2OC)c2cnccn12 | 79.6 µM and > 100 µM | > 100 | 
5 | Cn1cnc(-c2nc(C(=O)NC3CC3)c3ccccn23)c1 | 73.2 µM and 16.1 µM | > 100 | 
6 | CCOC(=O)N1CCN(C(=O)C2CC(=O)N(c3ccccc3Br)C2)CC1 (configuration not stated) | 19.4 µM and 22.4 µM |  | IC50 [2]: 39.8 µM; IC50 [3]: 9.89 µM
7 | O=c1ccc2c(n1CC1CCOCC1)CCN(Cc1ccoc1)CC2 | > 100 µM | > 100 | 
8 | CNC(=O)c1cc2c(nc1NCC(C)C)CCN(CC1CC1)CC2 | 21 µM and 28.8 µM | > 100 | 
9 | COCc1ccc(CNc2cncc(-n3cccn3)n2)cc1 | > 57.5 µM and 18.9 µM | > 100 | 
10 | NS(=O)(=O)Cc1ccc(CNc2cncc(-n3cccn3)n2)cc1 | 19.4 µM and > 100 µM | > 100 | 
11 | CNC(=O)c1cc2c(nc1NCC1CC1)CCN(S(C)(=O)=O)CC2 | 14.8 µM and 22.2 µM | > 100 | 
12 | Cc1csc(CNc2cnc3c(c2)c(C)nn3C)n1 | 7.6 µM and 15.2 µM | > 100 | 
13 | Cc1cc(C)c2cc(CNC(C)C)c3nn(C)c(=O)n3c2c1 | 17 µM and 18.4 µM | > 100 | 
14 | COc1ccccc1-c1ccnc2nc(N3CCCCC3)[nH]c(=O)c12 | 10.9 µM and 13.9 µM | > 100 | 
15 | Cc1nc2c(Nc3cccc(C#N)c3)nc(N)nc2n1C | > 100 µM |  | IC50 [2]: 3.75 µM; IC50 [3]: 4.14 µM
16 | CC(C)(CO)CNC(=O)c1cc(-c2cc[nH]n2)n2ccccc12 | 22.5 µM and 17.5 µM | > 100 | 
17 | O=C(O)c1cn(-c2ccccn2)c(=O)c2ccccc12 | 8.93 µM and 20.5 µM | > 100 | 
18 | CC(CN1CCCC1=O)NC(=O)c1ccc(-c2ccco2)[nH]c1=O (configuration not stated) | 7.52 µM and 13.7 µM | > 100 | 
19 | CN(C)S(=O)(=O)c1ccc(-c2nc(C#N)c(NC3CC3)o2)o1 | 12.2 µM and 13.6 µM | > 100 | 
20 | Cc1nn(C)cc1C1=NS(=O)(=O)N(C)C(C(=O)Nc2ccc(Br)cc2)=C1 | 28.6 µM and 36.6 µM |  | pIC50 [5]: 6.699; IC50 [5]: 0.238 µM
21 | CC(C)Nc1nc2c(cc1C(=O)NCC1CC1)CCN(S(C)(=O)=O)CC2 | 20.5 µM and 23.8 µM | > 100 | 
22 | CC(C)Nc1nc2c(cc1C(=O)NCC1CC1)CCN(C)CC2 | 30.6 µM and 15.6 µM | > 100 | 
23 | Cc1ccc(C(=O)N(C)Cc2cc(C)on2)cn1 | > 100 µM | > 100 | 
24 | Cn1c(Cn2ncc(N3CCCCC3)cc2=O)nc2ccccc21 | > 100 µM | > 100 | 
25 | COc1cnc(N2CCN(C)CC2)nc1-c1ccnn1C | 23.7 µM and 24.9 µM | > 100 | 

Row | SMILES | IC50 [1] | IC50 [4] [µM] | other results
26 | CNC(=O)N1CCc2cc(C(=O)NCC3CC3)c(NC(C)C)nc2CC1 | 10.7 µM and 18.7 µM | > 100 | 
27 | N#Cc1nccnc1N1CCC(CSc2ccccc2)C1 (configuration not stated) | 18.6 µM and 20.2 µM |  | IC50 [2]: 18.9 µM; IC50 [3]: 4.96 µM
28 | CN(C)C(=O)c1cnc(-c2ccc3c(c2)OCO3)s1 | 11.1 µM and 8.56 µM | > 100 | 
29 | Cc1nc(C)n(C2CCCN(C(=O)c3nc(C)n4ccccc34)C2)n1 (configuration not stated) | 8.78 µM and 12.7 µM | > 100 | 
30 | Cc1nc(C(=O)N(C)CC(F)(F)C(F)(F)F)c2ccccn12 | > 57.5 µM and 27.2 µM | > 100 | 
31 | CCc1nc(C2CCCN2C(=O)c2nc(C)n3ccccc23)no1 (configuration not stated) | 8.2 µM and 6.66 µM | > 100 | 
32 | Cc1nc(-c2ccc(Cl)s2)sc1C(=O)NCCCC(N)=O | > 100 µM and 15.1 µM | > 100 | 
33 | CN1CCC(NC(=O)c2cc(F)cc(Cl)c2O)C1=O (configuration not stated) | 40.1 µM and 21.4 µM | > 100 | 
34 | O=c1[nH]c(NCCCO)nc2c1C1(CCCC1)Cc1ccccc1-2 | 24.5 µM and 29.7 µM | > 100 | 
35 | COCc1noc(-c2ccc(N(C)Cc3ccc(C)o3)nc2)n1 | > 100 µM |  | IC50 [3]: 18.1 µM
36 | Cc1cccc(-c2ccc(C(=O)NCC(C)(C)C(N)=O)c(=O)[nH]2)c1 | 25 µM and 32 µM |  | 
37 | CN1CCc2ccc(NCc3cccs3)cc2C1=O | > 100 µM |  | 
38 | Cn1cc(C[C@H]2[C@H](N3CCOCC3)CCN2c2ncc(F)cn2)cn1 | > 100 µM |  | 
39 | O=C(O)c1csc(S(=O)(=O)Nc2cccc(OCC(F)(F)F)c2)c1 | 36 µM and 20.4 µM |  | 
40 | CC(C)N1Cc2cccc(NCC(=O)N(C)C3CCCCC3)c2C1 | > 100 µM |  | 
41 | COc1ccc(-c2cc(C[C@@H]3C[C@H](N(C)C)C3(C)C)no2)cc1 | 41.5 µM and > 100 µM |  | 
42 | Cc1ccc(C)c(OC2CCN(C(=O)CNc3ccccc3Cl)CC2)c1 | 10.7 µM and 12.7 µM |  | 
43 | CCOCC1CN(C(=O)c2cccs2)Cc2cnn(CC3CC3)c21 (configuration not stated) | > 100 µM |  | 
44 | CC(O)CN1CCC(CNCc2c[nH]nc2C(C)(C)C)CC1 (configuration not stated) | > 100 µM |  | IC50 [2]: 45.6 µM; IC50 [3]: 35.4 µM
45 | CC(=O)N1CCC(NC(=O)c2cc(Cl)ccc2O)CC1 | > 100 µM and 80.2 µM |  | 
46 | COc1ccc(CCC(C)Nc2cccc(SC)c2)cc1 (configuration not stated) | 23 µM and 23.6 µM |  | IC50 [2]: 14.1 µM; IC50 [3]: 14.3 µM
47 | O=S(=O)(c1c(N2CCCCC2)ccc2nonc12)N1CCCCC1 | 26.1 µM and 29.2 µM |  | 
48 | NC(=O)CCSc1ccccc1NCc1ccc(Cl)s1 | 6.92 µM and 6.81 µM |  | 
49 | N#Cc1cccnc1N1CCCC(CO)(Cc2cccc(Cl)c2)C1 (configuration not stated) | 26.7 µM and 23.5 µM |  | 
50 | Cc1ccnc(OC[C@]23COC[C@H]2CN(C(=O)c2ncccn2)C3)n1 | > 100 µM |  | 
